15 molecules from US12448389B2, “BRM targeting compounds and associated methods of use” (Prelude Therapeutics Incorporated, priority 2020, dated 2025) can be followed below.

For one experiment, the target named is T1, SMARCA4-HiBiT (Homo sapiens, UniProt P51532).
T1 construct: SMARCA4-HiBiT knock-in Hela monoclonal cell (CS3023226); host or cells: HeLa monoclonal knock-in line (CRISPR HiBiT knock-in at the endogenous locus, heterozygous)
The experiment can be described thus: SMARCA4 HiBiT degradation assay in HeLa cells. The experiment is classed as cell-based. The following applies: 18 hours incubation; for DC50: read-out: HeLa-HiBit-SM4 DC50; for Dmax: HeLa, read-out: HeLa-HiBit-SM4 Dmax (%). The gist of the method: (§1)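 HeLa monoclonal lines with heterozygous HiBiT knock-in were seeded at 2500 cells/well in EMEM with 10% FBS and treated with compound for 18 h at 37 °C. Remaining tagged protein was measured by Nano-Glo HiBiT lytic luminescence after 30–60 min at RT, and values came from curve fitting.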

The next experiment deals with T2, SMARCA2-HiBiT (Homo sapiens, UniProt P51531).
T2 construct: SMARCA2-HiBiT knock-in Hela monoclonal cell (CS302366); host or cells: HeLa monoclonal knock-in line (CRISPR HiBiT knock-in at the endogenous locus, heterozygous)
The experiment can be described thus: SMARCA2 HiBiT degradation assay in HeLa cells. The experiment is classed as cell-based. The following applies: 18 hours incubation; for DC50: read-out: HeLa_HiBit-SM2 DC50; for Dmax: HeLa, read-out: HeLa-HiBit-SM2 Dmax (%). The method, boiled down:
as §1
On the technique in general: With HiBiT, luminescence reflects the tagged protein that the partner subunit can reach.

Molecules are shown by their SMILES.

T1 sequence (P51532 whole entry): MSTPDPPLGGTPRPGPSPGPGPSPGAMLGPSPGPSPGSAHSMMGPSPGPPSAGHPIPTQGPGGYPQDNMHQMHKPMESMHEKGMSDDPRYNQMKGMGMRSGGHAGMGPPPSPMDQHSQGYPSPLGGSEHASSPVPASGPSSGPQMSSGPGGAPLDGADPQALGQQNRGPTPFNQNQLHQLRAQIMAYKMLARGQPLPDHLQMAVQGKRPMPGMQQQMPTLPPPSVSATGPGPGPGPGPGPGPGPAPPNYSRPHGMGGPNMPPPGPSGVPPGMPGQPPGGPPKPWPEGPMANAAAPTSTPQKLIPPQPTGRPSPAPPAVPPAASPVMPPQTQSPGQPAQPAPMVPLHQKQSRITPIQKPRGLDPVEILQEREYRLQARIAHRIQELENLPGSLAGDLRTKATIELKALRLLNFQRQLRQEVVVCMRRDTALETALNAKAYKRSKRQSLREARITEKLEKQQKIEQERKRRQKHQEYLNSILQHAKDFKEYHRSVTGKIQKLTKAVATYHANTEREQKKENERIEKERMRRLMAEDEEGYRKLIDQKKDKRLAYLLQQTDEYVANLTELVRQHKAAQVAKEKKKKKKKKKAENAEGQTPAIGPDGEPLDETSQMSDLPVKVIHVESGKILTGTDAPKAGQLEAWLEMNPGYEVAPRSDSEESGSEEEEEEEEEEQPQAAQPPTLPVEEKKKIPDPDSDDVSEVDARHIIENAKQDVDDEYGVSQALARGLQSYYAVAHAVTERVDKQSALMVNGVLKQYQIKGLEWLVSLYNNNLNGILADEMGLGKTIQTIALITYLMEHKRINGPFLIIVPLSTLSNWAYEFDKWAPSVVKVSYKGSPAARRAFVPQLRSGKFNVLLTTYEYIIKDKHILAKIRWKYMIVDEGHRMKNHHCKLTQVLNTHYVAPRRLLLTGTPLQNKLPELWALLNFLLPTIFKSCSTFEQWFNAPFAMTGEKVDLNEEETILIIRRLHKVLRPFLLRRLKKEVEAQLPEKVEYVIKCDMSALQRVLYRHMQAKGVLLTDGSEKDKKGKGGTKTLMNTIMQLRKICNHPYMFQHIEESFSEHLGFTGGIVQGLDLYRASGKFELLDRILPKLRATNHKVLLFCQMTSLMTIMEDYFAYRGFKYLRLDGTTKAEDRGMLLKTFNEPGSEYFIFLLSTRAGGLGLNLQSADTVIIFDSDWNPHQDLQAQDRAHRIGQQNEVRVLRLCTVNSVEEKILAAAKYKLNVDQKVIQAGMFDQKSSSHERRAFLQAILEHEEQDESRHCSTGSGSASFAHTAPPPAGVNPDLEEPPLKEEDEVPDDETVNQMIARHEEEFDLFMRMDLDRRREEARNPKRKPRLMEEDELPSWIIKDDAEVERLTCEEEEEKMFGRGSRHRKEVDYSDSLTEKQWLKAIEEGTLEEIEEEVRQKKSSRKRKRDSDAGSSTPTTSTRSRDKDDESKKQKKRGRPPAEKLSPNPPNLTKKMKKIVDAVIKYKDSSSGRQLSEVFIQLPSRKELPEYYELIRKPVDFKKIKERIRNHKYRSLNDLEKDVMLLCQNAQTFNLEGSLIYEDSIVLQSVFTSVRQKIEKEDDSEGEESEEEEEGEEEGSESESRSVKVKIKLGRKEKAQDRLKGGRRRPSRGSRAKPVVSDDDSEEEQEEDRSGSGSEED
T2 sequence (P51531 whole entry): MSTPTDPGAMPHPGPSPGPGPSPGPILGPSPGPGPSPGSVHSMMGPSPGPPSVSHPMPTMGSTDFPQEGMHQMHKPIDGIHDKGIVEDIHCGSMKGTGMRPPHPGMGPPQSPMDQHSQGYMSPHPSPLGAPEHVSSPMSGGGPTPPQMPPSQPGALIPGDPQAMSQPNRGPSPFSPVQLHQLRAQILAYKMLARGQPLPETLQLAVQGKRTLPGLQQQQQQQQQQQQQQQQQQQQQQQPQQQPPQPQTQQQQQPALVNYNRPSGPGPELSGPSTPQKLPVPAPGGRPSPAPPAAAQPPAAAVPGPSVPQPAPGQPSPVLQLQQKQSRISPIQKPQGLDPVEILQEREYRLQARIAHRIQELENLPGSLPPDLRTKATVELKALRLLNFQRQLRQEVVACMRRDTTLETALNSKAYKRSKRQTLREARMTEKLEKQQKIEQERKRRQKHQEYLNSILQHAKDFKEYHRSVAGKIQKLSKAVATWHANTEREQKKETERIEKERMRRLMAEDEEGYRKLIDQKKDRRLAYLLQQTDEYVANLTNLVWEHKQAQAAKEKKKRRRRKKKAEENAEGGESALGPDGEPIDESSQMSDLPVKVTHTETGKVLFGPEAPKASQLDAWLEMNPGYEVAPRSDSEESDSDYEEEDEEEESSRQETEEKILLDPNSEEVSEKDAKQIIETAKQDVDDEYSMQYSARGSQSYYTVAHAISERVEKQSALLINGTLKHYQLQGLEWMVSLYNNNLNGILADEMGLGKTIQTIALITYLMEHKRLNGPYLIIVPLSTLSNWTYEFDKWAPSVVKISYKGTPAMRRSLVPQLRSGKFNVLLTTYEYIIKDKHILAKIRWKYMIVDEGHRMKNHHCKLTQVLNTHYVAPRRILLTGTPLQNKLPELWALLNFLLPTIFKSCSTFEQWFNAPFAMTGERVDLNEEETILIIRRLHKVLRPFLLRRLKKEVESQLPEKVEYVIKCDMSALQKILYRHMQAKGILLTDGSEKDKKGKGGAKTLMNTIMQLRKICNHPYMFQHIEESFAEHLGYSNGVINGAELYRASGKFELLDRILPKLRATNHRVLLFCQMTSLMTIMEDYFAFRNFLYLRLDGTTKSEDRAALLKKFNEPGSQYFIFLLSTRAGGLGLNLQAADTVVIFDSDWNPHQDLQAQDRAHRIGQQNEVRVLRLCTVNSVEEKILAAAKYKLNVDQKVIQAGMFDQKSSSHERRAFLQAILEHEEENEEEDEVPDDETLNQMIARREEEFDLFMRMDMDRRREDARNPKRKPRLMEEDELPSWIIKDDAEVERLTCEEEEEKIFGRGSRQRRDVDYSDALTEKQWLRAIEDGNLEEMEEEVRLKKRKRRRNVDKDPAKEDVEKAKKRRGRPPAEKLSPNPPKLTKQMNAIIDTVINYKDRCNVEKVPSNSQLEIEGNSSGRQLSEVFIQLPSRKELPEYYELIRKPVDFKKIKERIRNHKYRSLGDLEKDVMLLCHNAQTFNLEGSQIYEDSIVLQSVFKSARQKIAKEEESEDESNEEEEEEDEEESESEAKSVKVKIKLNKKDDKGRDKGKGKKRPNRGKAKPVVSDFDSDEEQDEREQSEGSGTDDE

With `O=C1CCC(N2Cc3cc(CN4CCC(N5CCC(N6CCN7c8cc(-c9ccccc9O)nnc8NC[C@H]7C6)CC5)CC4)ccc3C2=O)C(=O)N1` (stereo partly drawn) [Example 63, 3-(5-((4-((S)-2-(2-hydroxyphenyl)-5,6,6a,7,9,10-hexahydro-8H-pyrazino[1′,2′:4,5]pyrazino[2,3-c]pyridazin-8-yl)-[1,4′-bipiperidin]-1′-yl)methyl)-1-oxoisoindolin-2-yl)piperidine-2,6-dione], at SMARCA4-HiBiT, the DC50 was below 10 nM and the Dmax was above 85%. At SMARCA2-HiBiT, the DC50 is below 10 nM and the Dmax was above 85%.
For the molecule `O=C1CCC(N2C(=O)c3ccc(N4CCC(CNC5CCN(C(=O)N6CCN7c8cc(-c9ccccc9O)nnc8NC[C@H]7C6)CC5)CC4)cc3C2=O)C(=O)N1` (stereo partly drawn) [Example 140, 2-(2,6-dioxopiperidin-3-yl)-5-(4-(((l-((S)-2-(2-hydroxyphenyl)-6,6a,7,8,9,10-hexahydro-5H-pyrazino[1′,2′:4,5]pyrazino[2,3-c]pyridazine-8-carbonyl)piperidin-4-yl)amino)methyl)piperidin-1-yl)isoindoline-1,3-dione], at SMARCA4-HiBiT, the DC50 is below 10 nM and the Dmax was in the range of 75 to 85%. At SMARCA2-HiBiT, the DC50 was below 10 nM and the maximal degradation (Dmax) fell in the range of 75 to 85%.
Consider `CC12CNc3nnc(-c4ccccc4O)cc3N1CCN(C1CCN(CCCc3ccc4c(c3)c3cccnc3n4C3CCC(=O)NC3=O)CC1)C2` (stereo not shown) [Example 25, 3-(6-(3-(4-(2-(2-hydroxyphenyl)-6a-methyl-5,6,6a,7,9,10-hexahydro-8H-pyrazino[1′,2′:4,5]pyrazino[2,3-c]pyridazin-8-yl)piperidin-1-yl)propyl)-9H-pyrido[2,3-b]indol-9-yl)piperidine-2,6-dione], for which the 50% degradation concentration (DC50) on SMARCA4-HiBiT and on SMARCA2-HiBiT was below 10 nM each time. In addition, the values for the Dmax at SMARCA4-HiBiT and on SMARCA2-HiBiT were 75 to 85% and above 85%, respectively.
Take `O=C1CCC(N2C(=O)c3ccc(N4CC[C@H](CN5C[C@@H]6[C@H](C5)[C@H]6CN5CCN6c7cc(-c8ccccc8O)nnc7NC[C@H]6C5)[C@H](F)C4)cc3C2=O)C(=O)N1` (stereo partly drawn) [Example 186, 2-(2,6-dioxopiperidin-3-yl)-5-[(3S,4R)-3-fluoro-4-[[(1S,5R)-6-[[(10S)-4-(2-hydroxyphenyl)-1,5,6,8,12-pentazatricyclo[8.4.0.02,7]tetradeca-2(7),3,5-trien-12-yl]methyl]-3-azabicyclo[3.1.0]hexan-3-yl]methyl]piperidin-1-yl]isoindole-1,3-dione]: at SMARCA4-HiBiT, the 50% degradation concentration (DC50) is below 10 nM and the Dmax was in the range of 50 to 75%. Besides, at SMARCA2-HiBiT, the half-maximal degradation concentration (DC50) is below 10 nM and the Dmax lay in the range of 75 to 85%.
Turning to `O=C1CCC(n2c3ccc(CCCN4CCC(N5CCN(C6C[C@@H]7CNc8nnc(-c9ccccc9O)cc8N7C6)CC5)CC4)cc3c3cccnc32)C(=O)N1` (stereo partly drawn) [Example 27, 3-(6-(3-(4-(4-((6aR)-2-(2-hydroxyphenyl)-5,6,6a,7,8,9-hexahydropyrrolo [1′,2′:4,5]pyrazino[2,3-c]pyridazin-8-yl)piperazin-1-yl)piperidin-1-yl)propyl)-9H-pyrido[2,3-b]indol-9-yl)piperidine-2,6-dione], on SMARCA4-HiBiT, the DC50 was below 10 nM and the greatest degradation seen (Dmax) was in the range of 50 to 75%. Further, at SMARCA2-HiBiT, the DC50 is below 10 nM and the Dmax lay in the range of 50 to 75%.
Consider `CN(CCNc1ccc2c(c1)C(=O)N(C1CCC(=O)NC1=O)C2=O)C1CCC(N2CCN3c4cc(-c5ccccc5O)nnc4NC[C@H]3C2)CC1` (stereo partly drawn) [Example 220, 2-(2,6-dioxopiperidin-3-yl)-5-((2-((4-((S)-2-(2-hydroxyphenyl)-5,6,6a,7,9,10-hexahydro-8H-pyrazino[1′,2′:4,5]pyrazino[2,3-c]pyridazin-8-yl)cyclohexyl)(methyl)amino)ethyl)amino) isoindoline-1,3-dione], for which, on SMARCA4-HiBiT, the half-maximal degradation concentration (DC50) was below 10 nM and the Dmax fell in the range of 75 to 85%. Also, at SMARCA2-HiBiT, the 50% degradation concentration (DC50) is below 10 nM and the maximal degradation (Dmax) fell in the range of 75 to 85%.
As to `CC1CN(CC2CN(c3ccc4c(c3)C(=O)N(C3CCC(=O)NC3=O)C4=O)C2)CC(C)N1C(=O)N1CCN2c3cc(-c4ccccc4O)nnc3NC[C@H]2C1` (stereo partly drawn) [Example 274, 2-(2,6-dioxopiperidin-3-yl)-5-(3-((4-((S)-2-(2-hydroxyphenyl)-6,6a,7,8,9,10-hexahydro-5H-pyrazino[1 ′,2′:4,5]pyrazino[2,3-c]pyridazine-8-carbonyl)-3,5-dimethylpiperazin-1-yl)methyl)azetidin-1-yl)isoindoline-1,3-dione], at SMARCA4-HiBiT, the DC50 was below 10 nM and the greatest degradation seen (Dmax) lay in the range of 50 to 75%. At SMARCA2-HiBiT, the 50% degradation concentration (DC50) was below 10 nM and the greatest degradation seen (Dmax) is above 85%.
For `O=C1CCC(N2Cc3cc(CN4CCC(CCCN5CCC(N6CCN7c8cc(-c9ccccc9O)nnc8NC[C@H]7C6)CC5)CC4)ccc3C2=O)C(=O)N1` (stereo partly drawn) [Example 65, 3-(5-((4-(3-(4-((S)-2-(2-hydroxyphenyl)-5,6,6a,7,9,10-hexahydro-8H-pyrazino[1′,2′:4,5]pyrazino[2,3-c]pyridazin-8-yl)piperidin-1-yl)propyl)piperidin-1-yl)methyl)-1-oxoisoindolin-2-yl)piperidine-2,6-dione], at SMARCA4-HiBiT, the DC50 was below 10 nM and the Dmax is above 85%. For the same molecule, at SMARCA2-HiBiT, the half-maximal degradation concentration (DC50) was below 10 nM and the greatest degradation seen (Dmax) is above 85%.
Regarding `O=C1CCC(N2C(=O)c3ccc(N4C[C@@H]5[C@@H](CN6CCC(CN7CCN8c9cc(-c%10ccccc%10O)nnc9NC[C@H]8C7)CC6)[C@@H]5C4)cc3C2=O)C(=O)N1` (stereo partly drawn) [Example 154, 2-(2,6-dioxopiperidin-3-yl)-5-((1R,5S,6s)-6-((4-(((S)-2-(2-hydroxyphenyl)-5,6,6a,7,9,10-hexahydro-8H-pyrazino[1′,2′:4,5]pyrazino[2,3-c]pyridazin-8-yl)methyl)piperidin-1-yl)methyl)-3-azabicyclo[3.1.0]hexan-3-yl)isoindoline-1,3-dione], at SMARCA4-HiBiT, the DC50 is below 10 nM and the greatest degradation seen (Dmax) lay in the range of 50 to 75%. At SMARCA2-HiBiT, the 50% degradation concentration (DC50) is below 10 nM and the Dmax fell in the range of 50 to 75%.
As for `CC1CN(CC2CCN(c3ccc4c(c3)C(=O)N(C3CCC(=O)NC3=O)C4=O)CC2)CCC1CN1CCN2c3cc(-c4ccccc4O)nnc3NC[C@H]2C1` (stereo partly drawn) [Example 161, 2-(2,6-dioxopiperidin-3-yl)-5-(4-((4-(((S)-2-(2-hydroxyphenyl)-5,6,6a,7,9,10-hexahydro-8H-pyrazino[1′,2′:4,5]pyrazino[2,3-c]pyridazin-8-yl)methyl)-3-methylpiperidin-1-yl)methyl)piperidin-1-yl)isoindoline-1,3-dione], at SMARCA4-HiBiT, the DC50 was below 10 nM and the Dmax is above 85%. Besides, at SMARCA2-HiBiT, the DC50 is below 10 nM and the Dmax was above 85%.
Consider `O=C1CCC(N2C(=O)c3ccc(N4CCOC(CN5CCN(C(=O)N6CCN7c8cc(-c9ccccc9O)nnc8NC[C@H]7C6)CC5)C4)cc3C2=O)C(=O)N1` (stereo partly drawn) [Example 117, 2-(2,6-dioxopiperidin-3-yl)-5-(2-((4-((S)-2-(2-hydroxyphenyl)-6,6a,7,8,9,10-hexahydro-5H-pyrazino[1′,2′:4,5]pyrazino[2,3-c]pyridazine-8-carbonyl)piperazin-1-yl)methyl)morpholino)isoindoline-1,3-dione], for which, at SMARCA4-HiBiT, the 50% degradation concentration (DC50) is 10 to 100 nM and the maximal degradation (Dmax) was at most 50%. On SMARCA2-HiBiT, the DC50 was below 10 nM and the Dmax lay within 75 to 85%.
As to `CCC1CN(CC2CCN(c3ccc4c(c3)C(=O)N(C3CCC(=O)NC3=O)C4)CC2)CCN1C(=O)N1CCN2c3cc(-c4ccccc4O)nnc3NC[C@H]2C1` (stereo partly drawn) [Example 271, 3-(6-(4-((3-ethyl-4-((S)-2-(2-hydroxyphenyl)-6,6a,7,8,9,10-hexahydro-5H-pyrazino[1′,2′:4,5]pyrazino[2,3-c]pyridazine-8-carbonyl)piperazin-1-yl)methyl)piperidin-1-yl)-1-oxoisoindolin-2-yl)piperidine-2,6-dione], the half-maximal degradation concentration (DC50) on SMARCA4-HiBiT and at SMARCA2-HiBiT was below 10 nM throughout.
For `O=C1CCC(N2C(=O)c3cccc(N4CCC(N5CCC(N6CCN7c8cc(-c9ccccc9O)nnc8NC[C@H]7C6)CC5)CC4)c3C2=O)C(=O)N1` (stereo partly drawn) [Example 66, 2-(2,6-dioxopiperidin-3-yl)-4-(4-((S)-2-(2-hydroxyphenyl)-5,6,6a,7,9,10-hexahydro-8H-pyrazino[1′,2′:4,5]pyrazino[2,3-c]pyridazin-8-yl)-[1,4′-bipiperidin]-1′-yl) isoindoline-1,3-dione], the 50% degradation concentration (DC50) on SMARCA4-HiBiT and on SMARCA2-HiBiT was below 10 nM each time. Besides, the Dmax at SMARCA4-HiBiT and on SMARCA2-HiBiT was above 85% each time.
With `O=C1CCC(N2Cc3cc(C4CCN(C5CCN(CCCN6CCN7c8cc(-c9ccccc9O)nnc8NC[C@H]7C6)C5)CC4)ccc3C2=O)C(=O)N1` (stereo partly drawn) [Example 208, 3-(5-(1-(1-(3-((S)-2-(2-hydroxyphenyl)-5,6,6a,7,9,10-hexahydro-8H-pyrazino[1′,2′:4,5]pyrazino[2,3-c]pyridazin-8-yl)propyl)pyrrolidin-3-yl)piperidin-4-yl)-1-oxoisoindolin-2-yl)piperidine-2,6-dione], on SMARCA4-HiBiT, the half-maximal degradation concentration (DC50) is below 10 nM and the Dmax lay in the range of 50 to 75%. For the same molecule, at SMARCA2-HiBiT, the DC50 was below 10 nM and the maximal degradation (Dmax) was in the range of 75 to 85%.
Regarding `CCC1Nc2nnc(-c3ccccc3O)cc2N2CCN(CC3CCN(CC4CCN(c5ccc6c(c5)C(=O)N(C5CCC(=O)NC5=O)C6=O)CC4)CC3)CC12` (stereo not shown) [Example 128, 2-(2,6-dioxopiperidin-3-yl)-5-(4-((4-((6-ethyl-2-(2-hydroxyphenyl)-5,6,6a,7,9,10-hexahydro-8H-pyrazino[1′,2′:4,5]pyrazino[2,3-c]pyridazin-8-yl)methyl)piperidin-1-yl)methyl)piperidin-1-yl)isoindoline-1,3-dione], at SMARCA4-HiBiT, the DC50 is below 10 nM and the Dmax was above 85%. At SMARCA2-HiBiT, the DC50 was below 10 nM and the Dmax is above 85%.

As a reminder, the DC50 is the concentration at which degradation of the target reaches its halfway point. The Dmax is the largest share of the target that was removed.
